For one test, the system named is DG-75. Briefly: CellTiter-Glo (CTG) cell proliferation assay, 72 hours. It is filed as cell-based. To be noted: Homo sapiens, Burkitt Lymphoma. The method, then:
(§1) Preparation of Solutions of Test Article: Compounds were plated into black 384-well plates (Corning Inc.) to a final DMSO volume of 0.1% assuming a maximal volume of 50 μL. A 10-point dose response starting at 10 μM with a 1:3 dilution was printed in duplicate by acoustic dispense using the EDC ATS-100 platform.
(§2) Cell Proliferation Assays: The effect of Compound 1 on the proliferation/viability of the hematological cell lines (Table 1 Table, Table 2 and Table 3), THLE-2, or PBMCs was assessed after 72 hours incubation using CTG (Promega), according to manufacturer's instructions. Hematological cell lines were dispensed into compound plates by a Multidrop™ Combi Reagent Dispenser (Thermo Scientific, Waltham, Mass.) at a concentration of 0.1 to 0.3×10^6 cells per mL in a 50 μL total volume. THLE-2 cells were seeded out at 1000 cells per well in 50 μL volume and incubated for 72 hours. At 72 hours, 25 μL per well of CTG was dispensed by a Multidrop™ Combi Reagent Dispenser and adenosine triphosphate (ATP) release by viable cells was measured as relative luminescence units after 30 minutes using the Envision platform.

The next test deals with Karpas 231. Described as above. It counts as cell-based. To be noted: Homo sapiens, Acute Lymphoblastic Leukemia. The method, then: as §1, §2
Another test concerns OCI-LY-10. The test is described as above. Conditions: Homo sapiens, OCI-Ly10, Diffuse Large B-cell Lymphoma (activated B-cell like). It counts as cell-based. The method, then:
as §1, §2

For a further test, the system named is Karpas 299. Described as above. It counts as cell-based. Conditions: Homo sapiens, Anaplastic Large Cell Lymphoma. Here is the method: as §1, §2
The test system of the next test is Namalwa. The test is described as above. It is filed as cell-based. Conditions: Homo sapiens, Burkitt Lymphoma. The method, then: as §1, §2
The next test relates to Daudi. The description is as above. Conditions: Homo sapiens, Burkitt Lymphoma. It counts as cell-based. Here is the method: as §1, §2
The test system of another test is MC-116. The test is described as above. To be noted: Homo sapiens, MC116, Acute Lymphoblastic Leukemia. It counts as cell-based. The method, then: as §1, §2
In another test the test system is U2932. The description is as above. It counts as cell-based. Conditions: Homo sapiens, Diffuse Large B-cell Lymphoma (activated B-cell like). The method, then: as §1, §2
For a further test, the system named is BL-70. The test is described as above. It counts as cell-based. Conditions: Homo sapiens, Burkitt Lymphoma. The method, then: as §1, §2
Another test relates to Ramos. The description is as above. It is filed as cell-based. Conditions: Homo sapiens, Burkitt Lymphoma. The method, then:
as §1, §2

A further test deals with SR. The description is as above. It is filed as cell-based. To be noted: Homo sapiens, Acute Lymphoblastic Leukemia. The method, then:
as §1, §2

Another test concerns HS-Sultan. The description is as above. It counts as cell-based. Conditions: Homo sapiens, Burkitt Lymphoma. The method, then: as §1, §2
Another test relates to Blue-1. Described as above. It is filed as cell-based. Conditions: Homo sapiens, Burkitt Lymphoma. Here is the method:
as §1, §2

Another test has as its system EB-1. Described as above. It is filed as cell-based. Conditions: Homo sapiens, EB1, Burkitt Lymphoma. Here is the method:
as §1, §2

A further test deals with Raji. The description is as above. To be noted: Homo sapiens, Burkitt Lymphoma. It counts as cell-based. Here is the method: as §1, §2
The next test has as its system BL-41. Described as above. It is filed as cell-based. Conditions: Homo sapiens, Burkitt Lymphoma. The method, then:
as §1, §2

The next test relates to RC-K8. The test is described as above. It counts as cell-based. To be noted: Homo sapiens, RCK8, Diffuse Large B-cell Lymphoma (activated B-cell like). Here is the method: as §1, §2
The next test concerns HNT-34. Description: Flow cytometry viable cell counting, 72 hours. It is filed as cell-based. To be noted: Homo sapiens, HNT-34 as sensitive positive control cell line in PBMC comparison, read-out: cell count IC50. Here is the method:
(§3) The effects of Compound 1 in healthy PBMCs were also assessed. Compound 1 was added to PBMC s from one donor at time zero and assessed at 72 hours. This was compared to PBMCs that were pre-activated and proliferating on anti-CD3 antibody-coated plates for 72 hours before Compound 1 was added and the cells were incubated for an additional 72 hours. HNT-34 cells were used as a sensitive positive control cell line. Peripheral blood mononuclear cells that were pre-activated were resistant to the antiproliferative effects of Compound 1 (IC50>[…]) as determined by CTG and viable cell count. However, Compound 1 did reduce cell proliferation in PBMCs that were not pre-activated, as measured using two methods, CTG and flow cytometry cell counting (CTG IC50=0.1 μM; cell count IC50=0.5 μM). […] Similar or greater differences in Compound 1-induced elevation of caspase 3/7 and membrane depolarization were seen between pre-activated PBMCs and HNT-34 cells.

The next test deals with PBMCs. Briefly: Flow cytometry viable cell counting, 72 hours. Conditions: Homo sapiens, PBMC, PBMCs not pre-activated, read-out: cell count IC50. It counts as cell-based. Here is the method: as §3
Another test deals with OCI-AML3. Briefly: Annexin V/7-AAD flow cytometry apoptosis assay. To be noted: OCI-AML3 (Compound 1-insensitive AML line). It counts as cell-based, human. Here is the method: Cell Apoptosis Assays: The ability of Compound 1 to induce apoptosis was assessed in selected AML cell lines and healthy PBMCs at the time points and compound concentrations indicated. For Annexin V/7-AAD readout by flow cytometry, AML cell lines were plated into flat bottom 96-well plates (BD Falcon) at a seeding density of 0.1 to 0.3×10^6 cells per mL in 200 μL complete media. Compound 1 was dispensed onto the plates and the cells were incubated for the times indicated. For frozen PBMCs, cells were thawed as previously described and plated at a seeding density of 1×10^6 cells per mL in 200 μL on Corning® BioCoat™ T-Cell Activation Anti-Human CD3 96-well plates (Corning Inc., Corning, N.Y.). Compound 1 was dispensed onto the plates and the cells were incubated for the times indicated. […] One hundred microliters of Annexin V/7-AAD buffer was added per well and the cells incubated for 15 minutes before being analyzed using the Attune Flow Cytometer (Life Technologies, Carlsbad, Calif.). For caspase 3/7 activity, the remaining 100 μL was incubated with CellEvent™ Caspase-3/7 Green ReadyProbes® Reagent (1:1000 dilution; Molecular Probes) for 15 minutes before being analyzed using the Attune Flow Cytometer. […]
Compound 1 Induces Apoptosis in Acute Myeloid Leukemia Cell Lines. […] 0.01 μM and 0.1 μM and apoptosis was assessed over time.

Some results are limits rather than exact numbers.

`O=C1CCC(N2Cc3cc(CNC(=O)C(F)(F)c4ccc(Cl)cc4)ccc3C2=O)C(=O)N1` (centres unmarked) [Compound 1, 2-(4-chlorophenyl)-N-((2-(2,6-dioxopiperidin-3-yl)-1-oxoisoindolin-5-yl)methyl)-2,2-difluoroacetamide]: the IC50 in the test on DG-75 was over 10000 nM; in the test on Karpas 231, 790 nM; in the test with OCI-LY-10, over 10000 nM; in the test on Karpas 299, over 10000 nM; in the test on Namalwa, 74.6 nM; in the test with Daudi it was 393 nM. The IC50 with MC-116 was over 10000 nM; in the test with U2932, 904 nM; with BL-70 it was 347 nM; in the test with Ramos, over 10000 nM; in the test on SR, over 10000 nM; in the test on HS-Sultan, over 10000 nM. In addition, the IC50 in the test on Blue-1 was 986 nM; with EB-1 it was 66.3 nM; with Raji, over 10000 nM; with BL-41 it was over 10000 nM; with RC-K8, 956 nM; in the test on HNT-34, 4 nM. Also, the IC50 with PBMCs came out at 500 nM. In addition, in the test with OCI-AML3, the induction of apoptosis result was “did not induce apoptosis”.
